Like-named read-outs stand apart in the source and are kept apart here.
What was measured:
Format in all cases: cell-based
A431 (EGFR-WT) cells = test: Inhibitory activity on proliferation of A431 (EGFR-WT) cells (CTG, 72 h); details: Homo sapiens, A-431
Procedure, shortened: (§1)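 IC50 values come from S-shaped dose-survival fits of CTG signal expressed as % of vehicle. Compound exposure lasted 72 h at 37 °C with 0.1% DMSO; seeding was 3000 A431 cells/well in DMEM+10% FBS and 1000 NCI-H1975 cells/well in RPMI1640+10% FBS.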

[1] = tested on: Ba/F3-TEL-EGFR-T790M-L858R-C797S cells; test: Inhibitory activity on proliferation of Ba/F3-TEL-EGFR-T790M-L858R-C797S cells (CellTiter-Glo, 72 h)
Description: Ba/F3-TEL-EGFR-T790M-L858R-C797S cells were cultured in an incubator at 37° C. with 5% CO2. The cells in the logarithmic phase were collected, counted and plated in a 96-well plate at a density of 2000 cells/well. The compounds at different concentrations were added, and a vehicle control group (cells plus DMSO) and a blank control group (cell culture mediums plus DMSO) were provided, wherein the concentration of DMSO was both 0.1%. The cell culture plate was cultured in an incubator at 37° C. with 5% CO2 for 72 hours. After the incubation was completed, the cell culture plate was removed and allowed to equilibrate to room temperature for 10 min. […] The plate was placed at room temperature for 10 min, and then […] signal values were measured using a microplate reader (SpectraMax Paradigm). […] The inhibition rates corresponding to different concentrations of compounds were calculated, and using the GraphPad Prism software, the inhibition rate curves were plotted, and IC50 values were calculated. wherein RLUDrug was the readout of the drug-treated group, RLUMax was the readout of the control group, and RLUMin was the readout of the blank group.

[2] = tested on: NCI-H1975 (EGFR-L858R-T790M) cells; test: Inhibitory activity on proliferation of NCI-H1975 (EGFR-L858R-T790M) cells (CTG, 72 h); details: Homo sapiens
Procedure, shortened: as §1

[3] = read-out: IC50 (value in brackets)

SMILES | IC50 (A431 (EGFR-WT) cells) [nM] | IC50 [1] [nM] | IC50 ([2]; read-out: IC50 (class symbol)) [nM] | IC50 [2, 3] [nM]
COc1cc(N2CCC(CN3CCN(c4ccc5c(c4)C(=O)N(C4CCC(=O)NC4=O)C5=O)CC3)CC2)c(-c2cnn(C)c2)cc1Nc1ncc(Cl)c(Nc2ccc(C3CC3)cc2P(C)(C)=O)n1 (centres unmarked) [Compound 107, 5-(4-((1-(4-((5-chloro-4-((4-cyclopropyl-2-(dimethylphosphoryl)phenyl)amino)pyrimidin-2-yl)amino)-5-methoxy-2-(1-methyl-1H-pyrazol-4-yl)phenyl)piperidin-4-yl)methyl)piperazin-1-yl)-2-(2,6-dioxopiperidin-3-yl)isoindoline-1,3-dione] | ≥ 10000 | 15.6 | < 100 | 56
COc1cc(N2CCC(CN3CCN(c4ccc5c(c4)C(=O)N(C4CCC(=O)NC4=O)C5=O)CC3)CC2)c(-c2cnn(C)c2)cc1Nc1ncc(Br)c(Nc2ccc(C3CC3)cc2P(C)(C)=O)n1 (centres unmarked) [Compound 106, 5-(4-((1-(4-((5-bromo-4-((4-cyclopropyl-2-(dimethylphosphoryl)phenyl)amino)pyrimidin-2-yl)amino)-5-methoxy-2-(1-methyl-1H-pyrazol-4-yl)phenyl)piperidin-4-yl)methyl)piperazin-1-yl)-2-(2,6-dioxopiperidin-3-yl)isoindoline-1,3-dione] | ≥ 10000 | 15.6 | < 100 | 54

Reference: US20240269298A1, “PHOSPHONYL DERIVATIVE, AND COMPOSITION AND PHARMACEUTICAL APPLICATION THEREOF” (XIZANG HAISCO PHARMACEUTICAL CO., LTD., priority 2021, published 2024)
